# Laboratory results from US10738028B2, “Spiro three-membered ring, spiro five-membered ring peptide deformylase inhibitor and use thereof in antibacteria and anti-tumor” (priority 2016, dated 2020).
# Tests used:
# Type in all cases: cell-based
# [1] = tested on: Enterococcus faecalis (EFA); test: MIC, two-fold agar dilution (CLSI), clinical isolates
# Excerpt: (§1) 1. The invention adopts the two-fold agar dilution method recommended by the operating procedure of antimicrobial susceptibility testing set by American Clinical and Laboratory Standards Institute (CLSI) to determine the Minimum Inhibitory Concentration (MIC) of the test samples against the tested strains.
# [2] = tested on: Enterococcus faecium (EFM); test: as above
# Excerpt: as §1
# [3] = tested on: Escherichia coli (including ESBLs, non-ESBLs); test: as above
# Excerpt: as §1
# [4] = tested on: Moraxella catarrhalis (BCA); test: as above; conditions: for Anti-bacterial activity (MIC), strain BCA 14-10: clinical isolate BCA 14-10
# Excerpt: as §1
# [5] = tested on: Streptococcus pneoumoniae (SPN); test: as above
# Excerpt: as §1
# [6] = tested on: methicillin-resistant Staphylococcus aureus (MRSA); test: as above
# Excerpt: as §1
# [7] = tested on: methicillin-resistant Staphylococcus epidermidis (MRSE); test: as above
# Excerpt: as §1
# [8] = tested on: methicillin-sensitive Staphylococcus aureus (MSSA); test: as above
# Excerpt: as §1
# [9] = tested on: methicillin-sensitive Staphylococcus epidermidis (MSSE); test: as above
# Excerpt: as §1
# [10] = tested on: HCT-116 colorectal cancer cell line; test: CCK-8 proliferation inhibition; conditions: Homo sapiens, HCT-116, 72 h, concentration of 30 μM; 72 hours; CCK-8; read-out: HCT116 inhibition rate/%
# Method in brief: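 Viability read-out: 1:10 diluted CCK-8 after 72 h compound exposure at 37 °C, 5% CO2. Cells (2000/well, McCoy's 5A plus 10% newborn bovine serum) pre-cultured overnight; vehicle control 1‰ DMSO.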
smiles,measurement,setting,value
"O=CN(O)C[C@@H](CC1CCCC1)C(=O)N1CC2(CC2)C[C@H]1C(=O)Nc1ncccc1F [Example 30, (S)-5-((R)-3-cyclopentyl-2-((N-hydroxyformamido)methyl)propionyl)-N-(3-fluoropyridin-2-yl)-5-spiro[2.4]heptane-6-carboxamide]",MIC (anti-bacterial activity),[1]; strain EFA 15-1,4 µg/mL
same,MIC (anti-bacterial activity),[1]; strain EFA 15-2,4 µg/mL
same,MIC (anti-bacterial activity),[1]; strain EFA 15-3,4 µg/mL
same,MIC (anti-bacterial activity),[1]; strain EFA 15-4,4 µg/mL
same,MIC (anti-bacterial activity),[1]; strain EFA 15-5,4 µg/mL
same,MIC (anti-bacterial activity),[1]; strain EFA 15-6,2 µg/mL
same,MIC (anti-bacterial activity),[1]; strain EFA 15-9,8 µg/mL
same,MIC (anti-bacterial activity),[2]; strain EFM 15-1,2 µg/mL
same,MIC (anti-bacterial activity),[2]; strain EFM 15-2,1 µg/mL
same,MIC (anti-bacterial activity),[2]; strain EFM 15-3,0.25 µg/mL
same,MIC (anti-bacterial activity),[2]; strain EFM 15-4,1 µg/mL
same,MIC (anti-bacterial activity),[2]; strain EFM 15-5,4 µg/mL
same,MIC (anti-bacterial activity),[2]; strain EFM 15-6,1 µg/mL
same,MIC (anti-bacterial activity),[3]; strain ECO+ 15-1,32 µg/mL
same,MIC (anti-bacterial activity),[3]; strain ECO+ 15-2,> 32 µg/mL
same,MIC (anti-bacterial activity),[3]; strain ECO+ 15-3,> 32 µg/mL
same,MIC (anti-bacterial activity),[3]; strain ECO+ 15-4,> 32 µg/mL
same,MIC (anti-bacterial activity),[3]; strain ECO− 15-1,> 32 µg/mL
same,MIC (anti-bacterial activity),[3]; strain ECO− 15-2,> 32 µg/mL
same,MIC (anti-bacterial activity),[3]; strain ECO− 15-3,> 32 µg/mL
same,MIC (anti-bacterial activity),[3]; strain ECO− 15-4,> 32 µg/mL
same,"Anti-bacterial activity (MIC), strain BCA 14-10",[4],0.5 µg/mL
same,MIC (anti-bacterial activity),[4]; strain BCA 14-1,2 µg/mL
same,MIC (anti-bacterial activity),[4]; strain BCA 14-4,2 µg/mL
same,MIC (anti-bacterial activity),[4]; strain BCA 14-5,1 µg/mL
same,MIC (anti-bacterial activity),[4]; strain BCA 14-6,4 µg/mL
same,MIC (anti-bacterial activity),[4]; strain BCA 14-7,1 µg/mL
same,MIC (anti-bacterial activity),[4]; strain BCA 14-8,1 µg/mL
same,MIC (anti-bacterial activity),[5]; strain SPN 16-2,4 µg/mL
same,MIC (anti-bacterial activity),[5]; strain SPN 16-4,1 µg/mL
same,MIC (anti-bacterial activity),[6]; strain MRSA 15-1,0.5 µg/mL
same,MIC (anti-bacterial activity),[6]; strain MRSA 15-2,0.5 µg/mL
same,MIC (anti-bacterial activity),[6]; strain MRSA 15-3,0.5 µg/mL
same,MIC (anti-bacterial activity),[6]; strain MRSA 15-4,0.5 µg/mL
same,MIC (anti-bacterial activity),[7]; strain MRSE 15-1,0.5 µg/mL
same,MIC (anti-bacterial activity),[7]; strain MRSE 15-2,2 µg/mL
same,MIC (anti-bacterial activity),[7]; strain MRSE 15-3,2 µg/mL
same,MIC (anti-bacterial activity),[7]; strain MRSE 15-7,2 µg/mL
same,MIC (anti-bacterial activity),[8]; strain MSSA 15-3,0.5 µg/mL
same,MIC (anti-bacterial activity),[8]; strain MSSA 15-4,0.5 µg/mL
same,MIC (anti-bacterial activity),[8]; strain MSSA 15-5,0.5 µg/mL
same,MIC (anti-bacterial activity),[8]; strain MSSA 15-6,0.5 µg/mL
same,MIC (anti-bacterial activity),[9]; strain MSSE 15-3,2 µg/mL
same,MIC (anti-bacterial activity),[9]; strain MSSE 15-4,2 µg/mL
same,MIC (anti-bacterial activity),[9]; strain MSSE 15-5,2 µg/mL
same,MIC (anti-bacterial activity),[9]; strain MSSE 15-6,0.5 µg/mL
same,inhibition at 30 µM,[10],17%
"O=CN(O)C[C@@H](CC1CCCC1)C(=O)N1CC2(CC2)C[C@H]1C(=O)Nc1cc[nH]n1 [Example 31, (S)-5-((R)-3-cyclopentyl-2-((N-hydroxyformamido)methyl)propionyl)-N-(1H-pyrazol-3-yl)-5-azaspiro[2.4]heptane-6-carboxamide]",MIC (anti-bacterial activity),[1]; strain EFA 15-1,32 µg/mL
same,MIC (anti-bacterial activity),[1]; strain EFA 15-2,32 µg/mL
same,MIC (anti-bacterial activity),[1]; strain EFA 15-3,32 µg/mL
same,MIC (anti-bacterial activity),[1]; strain EFA 15-4,32 µg/mL
same,MIC (anti-bacterial activity),[1]; strain EFA 15-5,32 µg/mL
same,MIC (anti-bacterial activity),[1]; strain EFA 15-6,32 µg/mL
same,MIC (anti-bacterial activity),[1]; strain EFA 15-9,32 µg/mL
same,MIC (anti-bacterial activity),[2]; strain EFM 15-1,4 µg/mL
same,MIC (anti-bacterial activity),[2]; strain EFM 15-2,4 µg/mL
same,MIC (anti-bacterial activity),[2]; strain EFM 15-3,2 µg/mL
same,MIC (anti-bacterial activity),[2]; strain EFM 15-4,4 µg/mL
same,MIC (anti-bacterial activity),[2]; strain EFM 15-5,2 µg/mL
same,MIC (anti-bacterial activity),[2]; strain EFM 15-6,4 µg/mL
same,MIC (anti-bacterial activity),[3]; strain ECO+ 15-1,32 µg/mL
same,MIC (anti-bacterial activity),[3]; strain ECO+ 15-2,> 32 µg/mL
same,MIC (anti-bacterial activity),[3]; strain ECO+ 15-3,> 32 µg/mL
same,MIC (anti-bacterial activity),[3]; strain ECO+ 15-4,> 32 µg/mL
same,MIC (anti-bacterial activity),[3]; strain ECO− 15-1,> 32 µg/mL
same,MIC (anti-bacterial activity),[3]; strain ECO− 15-2,> 32 µg/mL
same,MIC (anti-bacterial activity),[3]; strain ECO− 15-3,> 32 µg/mL
same,MIC (anti-bacterial activity),[3]; strain ECO− 15-4,> 32 µg/mL
same,"Anti-bacterial activity (MIC), strain BCA 14-10",[4],2 µg/mL
same,MIC (anti-bacterial activity),[4]; strain BCA 14-1,4 µg/mL
same,MIC (anti-bacterial activity),[4]; strain BCA 14-4,16 µg/mL
same,MIC (anti-bacterial activity),[4]; strain BCA 14-5,2 µg/mL
same,MIC (anti-bacterial activity),[4]; strain BCA 14-6,8 µg/mL
same,MIC (anti-bacterial activity),[4]; strain BCA 14-7,2 µg/mL
same,MIC (anti-bacterial activity),[4]; strain BCA 14-8,4 µg/mL
same,MIC (anti-bacterial activity),[5]; strain SPN 16-2,1 µg/mL
same,MIC (anti-bacterial activity),[5]; strain SPN 16-4,16 µg/mL
same,MIC (anti-bacterial activity),[6]; strain MRSA 15-1,2 µg/mL
same,MIC (anti-bacterial activity),[6]; strain MRSA 15-2,2 µg/mL
same,MIC (anti-bacterial activity),[6]; strain MRSA 15-3,2 µg/mL
same,MIC (anti-bacterial activity),[6]; strain MRSA 15-4,2 µg/mL
same,MIC (anti-bacterial activity),[7]; strain MRSE 15-1,0.5 µg/mL
same,MIC (anti-bacterial activity),[7]; strain MRSE 15-2,2 µg/mL
same,MIC (anti-bacterial activity),[7]; strain MRSE 15-3,2 µg/mL
same,MIC (anti-bacterial activity),[7]; strain MRSE 15-7,2 µg/mL
same,MIC (anti-bacterial activity),[8]; strain MSSA 15-3,2 µg/mL
same,MIC (anti-bacterial activity),[8]; strain MSSA 15-4,2 µg/mL
same,MIC (anti-bacterial activity),[8]; strain MSSA 15-5,2 µg/mL
same,MIC (anti-bacterial activity),[8]; strain MSSA 15-6,2 µg/mL
same,MIC (anti-bacterial activity),[9]; strain MSSE 15-3,2 µg/mL
same,MIC (anti-bacterial activity),[9]; strain MSSE 15-4,2 µg/mL
same,MIC (anti-bacterial activity),[9]; strain MSSE 15-5,2 µg/mL
same,MIC (anti-bacterial activity),[9]; strain MSSE 15-6,2 µg/mL
same,inhibition at 30 µM,[10],19%
"O=CN(O)C[C@@H](CC1CCCC1)C(=O)N1CC2(CC2)C[C@H]1C(=O)N1CCS(=O)(=O)CC1 [Example 35, N—((R)-2-(cyclopentylmethyl)-3-((S)-6-(1,1-dioxythiomorpholine-4-carbonyl)-5-azaspiro[2.4]heptane-5-yl)-3-propylcarbonyl)-N-hydroxyformamide]",MIC (anti-bacterial activity),[1]; strain EFA 15-1,32 µg/mL
same,MIC (anti-bacterial activity),[1]; strain EFA 15-2,32 µg/mL
same,MIC (anti-bacterial activity),[1]; strain EFA 15-3,32 µg/mL
same,MIC (anti-bacterial activity),[1]; strain EFA 15-4,32 µg/mL
same,MIC (anti-bacterial activity),[1]; strain EFA 15-5,32 µg/mL
same,MIC (anti-bacterial activity),[1]; strain EFA 15-6,32 µg/mL
same,MIC (anti-bacterial activity),[1]; strain EFA 15-9,32 µg/mL
same,MIC (anti-bacterial activity),[2]; strain EFM 15-1,16 µg/mL
same,MIC (anti-bacterial activity),[2]; strain EFM 15-2,16 µg/mL
same,MIC (anti-bacterial activity),[2]; strain EFM 15-3,16 µg/mL
same,MIC (anti-bacterial activity),[2]; strain EFM 15-4,16 µg/mL
same,MIC (anti-bacterial activity),[2]; strain EFM 15-5,16 µg/mL
same,MIC (anti-bacterial activity),[2]; strain EFM 15-6,16 µg/mL
same,MIC (anti-bacterial activity),[3]; strain ECO+ 15-1,32 µg/mL
same,MIC (anti-bacterial activity),[3]; strain ECO+ 15-2,> 32 µg/mL
same,MIC (anti-bacterial activity),[3]; strain ECO+ 15-3,> 32 µg/mL
same,MIC (anti-bacterial activity),[3]; strain ECO+ 15-4,> 32 µg/mL
same,MIC (anti-bacterial activity),[3]; strain ECO− 15-1,> 32 µg/mL
same,MIC (anti-bacterial activity),[3]; strain ECO− 15-2,> 32 µg/mL
same,MIC (anti-bacterial activity),[3]; strain ECO− 15-3,> 32 µg/mL
same,MIC (anti-bacterial activity),[3]; strain ECO− 15-4,> 32 µg/mL
same,"Anti-bacterial activity (MIC), strain BCA 14-10",[4],32 µg/mL
same,MIC (anti-bacterial activity),[4]; strain BCA 14-1,32 µg/mL
same,MIC (anti-bacterial activity),[4]; strain BCA 14-4,32 µg/mL
same,MIC (anti-bacterial activity),[4]; strain BCA 14-5,16 µg/mL
same,MIC (anti-bacterial activity),[4]; strain BCA 14-6,32 µg/mL
same,MIC (anti-bacterial activity),[4]; strain BCA 14-7,32 µg/mL
same,MIC (anti-bacterial activity),[4]; strain BCA 14-8,32 µg/mL
same,MIC (anti-bacterial activity),[5]; strain SPN 16-2,16 µg/mL
same,MIC (anti-bacterial activity),[5]; strain SPN 16-4,32 µg/mL
same,MIC (anti-bacterial activity),[6]; strain MRSA 15-1,16 µg/mL
same,MIC (anti-bacterial activity),[6]; strain MRSA 15-2,32 µg/mL
same,MIC (anti-bacterial activity),[6]; strain MRSA 15-3,16 µg/mL
same,MIC (anti-bacterial activity),[6]; strain MRSA 15-4,32 µg/mL
same,MIC (anti-bacterial activity),[7]; strain MRSE 15-1,16 µg/mL
same,MIC (anti-bacterial activity),[7]; strain MRSE 15-2,32 µg/mL
same,MIC (anti-bacterial activity),[7]; strain MRSE 15-3,32 µg/mL
same,MIC (anti-bacterial activity),[7]; strain MRSE 15-7,32 µg/mL
same,MIC (anti-bacterial activity),[8]; strain MSSA 15-3,32 µg/mL
same,MIC (anti-bacterial activity),[8]; strain MSSA 15-4,32 µg/mL
same,MIC (anti-bacterial activity),[8]; strain MSSA 15-5,32 µg/mL
same,MIC (anti-bacterial activity),[8]; strain MSSA 15-6,32 µg/mL
same,MIC (anti-bacterial activity),[9]; strain MSSE 15-3,32 µg/mL
same,MIC (anti-bacterial activity),[9]; strain MSSE 15-4,32 µg/mL
same,MIC (anti-bacterial activity),[9]; strain MSSE 15-5,32 µg/mL
same,MIC (anti-bacterial activity),[9]; strain MSSE 15-6,32 µg/mL
same,inhibition at 30 µM,[10],-1%
